For the series, the system named is recurrent glioblastoma (GBM). Put plainly: Clinical trial: monthly ultrasound BBB opening followed by carboplatin in recurrent glioblastoma patients. The source says:
Patients experiencing recurrence (first, second or third) of a histologically proven de novo glioblastoma (GBM), previously treated with at least the first line standard of care were included (i.e. radiation with concurrent and adjuvant temozolomide). Patients had to have a growing contrast-enhancing tumor of less than 35 mm in diameter and be eligible for carboplatin-based chemotherapy.
The trial was designed as a dose escalation study (Simon et al. 1997) in which the US pressure was increased throughout the study starting at 0.5 and increasing to 1.1 MPa through 5 different “dose” levels (0.50, 0.65, 0.80, 0.95, and 1.1 MPa).
A minimum of three patients were included at each dose level. If none of the patients experienced a dose-limiting toxicity (DLT), the next dose level was opened. If one patient experienced a DLT, three additional patients were enrolled at that dose level.
Patients received US activation and BBB disruption every four weeks. The first treatment was performed at the initial “dose” level for the inclusion group, the second treatment at the next highest dose level, etc. Patients were treated monthly for up to a maximum of six treatments or until there was evidence of tumor progression.
All patients were assessed monthly using MR imaging, blood sampling, and clinical neurological evaluation. Two days prior to each planned ultrasound treatment, tumor status was evaluated on MRI according to the Response Assessment in Neuro-Oncology (RANO) Criteria (Wen et al. 2010). Progression-free survival (PFS) and overall survival (OS) were also assessed. Patients left the study if tumor progression was identified, which defined progression as an increase in tumor size of more than 25% or an increase in T2/FLAIR or as a neurological status degradation (Wen et al. 2010).
In the absence of tumor progression and significant toxicity, the BBB opening session followed by carboplatin injection was scheduled two days after. […]
Carboplatin dose (AUC, area under the curve) administration was calculated based on the Calvert formula taking into account renal function. […]

Where [1] appears, read: per patient, recurrent GBM, monthly US (0.5-1.1 MPa) + SonoVue BBB opening followed by i.v. carboplatin AUC 4-6.

“And” between values parts separate entries of the source, which are not always exact repeats. Equal values may be shown once.

Regarding `N.N.O=C([O-])C1(C(=O)[O-])CCC1.[Pt+2]` [Carboplatin], under “GBM patients, carboplatin perfusion started within 60 minutes after US BBB opening”, the cerebral carboplatin-related toxicity result is “No cerebral carboplatin-related toxicity was observed”. For the same compound, under setting [1], the Duration on-study is 3 months (4×) and 2 months (6×) and 2.5 months and >5 months and >4 months and 4 months and still on study; the “Tumor Progression (MRI, FLAIR/ T1Gd) in the acoustic” value is “Yes (5×) and No (9×) and slight”.

The values above are taken from patent US10981021B2, “Method for transiently disrupting a region of the blood-brain barrier of a human” (Carthera, priority 2016, dated 2021).
